# Results taken from ChEMBL document CHEMBL3865798, “Engineering another class of anti-tubercular lead: Hit to lead optimization of an intriguing class of gyrase ATPase inhibitors” (Eur J Med Chem, 2016).
# How the values were obtained:
# [1] = biological target: DNA gyrase subunit B (Mycobacterium smegmatis (strain ATCC 700084 / mc(2)155), UniProt A0QNE0)
# Description: Inhibition of Mycobacterium smegmatis 155 6His-tagged DNA gyrase B catalytic domain ATPase activity expressed in Escherichia coli BL21 (DE3) pLysS cells assessed as inorganic phosphate release after 120 mins in presence of ATP by malachite green dye based assay
# [2] = Growth inhibition of mouse RAW264.7 cells at 100 uM after 48 hrs by MTT assay; type: cell-based; conditions: read-out: GI
# [3] = tested on: Mycobacterium tuberculosis; assay: microbe, parasite or virus in culture; conditions: H37Rv, 168 h
# Description: Antimycobacterial activity against Mycobacterium tuberculosis H37Rv after 7 days by microplate alamar blue assay
# [4] = Volume of distribution in Wistar rat at 1 mg/kg, iv administered as single dose; type: ADME, organism-based; conditions: in vivo
# [5] = Protein binding in rat plasma by HPLC analysis; type: ADME, cell-free
# [6] = Tmax in Wistar rat at 20 mg/kg, po administered as single dose; type: ADME, organism-based; conditions: in vivo
# [7] = AUC (0 to infinity) in Wistar rat at 20 mg/kg, po administered as single dose; type: ADME, organism-based; parameters: dose 20 mg/kg, time infinity, route oral; conditions: in vivo
# [8] = AUC (0 to t) in Wistar rat at 20 mg/kg, po administered as single dose; type: ADME, organism-based; conditions: in vivo
# [9] = Time at which plasma concentration stays above in vitro Mycobacterium DNA gyrase IC50 in Wistar rat at 20 mg/kg, po; type: ADME, organism-based; conditions: in vivo
# [10] = Protein binding in human plasma at 5000 ng/ml by HPLC analysis; type: ADME, cell-free; conditions: read-out: PPB (converted)
# [11] = Total clearance in Wistar rat at 1 mg/kg, iv administered as single dose; type: ADME, organism-based; conditions: in vivo
# [12] = AUC (0 to t) in Wistar rat at 1 mg/kg, iv administered as single dose; type: ADME, organism-based; conditions: in vivo
# [13] = Apparent elimination half life in Wistar rat at 1 mg/kg, iv administered as single dose; type: ADME, organism-based; conditions: in vivo, read-out: betat1/2(app) (converted)
# [14] = AUC (0 to infinity) in Wistar rat at 1 mg/kg, iv administered as single dose; type: ADME, organism-based; parameters: dose 1 mg/kg, route intravenous, time infinity; conditions: in vivo
# [15] = Protein binding in rat plasma at 5000 ng/ml by HPLC analysis; type: ADME, cell-free; conditions: read-out: PPB (converted)
# [16] = Protein binding in human plasma by HPLC analysis; type: ADME, cell-free
# [17] = Cmax in Wistar rat at 20 mg/kg, po administered as single dose; type: ADME, organism-based; parameters: dose 20 mg/kg, route oral; conditions: in vivo
# [18] = Protein binding in human plasma at 100 ng/ml by HPLC analysis; type: ADME, cell-free; conditions: read-out: PPB (converted)
# [19] = Oral bioavailability in Wistar rat at 20 mg/kg administered as single dose; type: ADME, organism-based; conditions: in vivo
# [20] = biological target: DNA gyrase subunit B (Mycobacterium smegmatis (strain ATCC 700084 / mc(2)155)) (UniProt A0QNE0); assay: Binding affinity to Mycobacterium smegmatis 155 6His-tagged DNA gyrase B catalytic domain expressed in Escherichia coli BL21 (DE3) pLysS cells assessed as change in melting temperature by SYPRO orange dye based differential scanning fluorimetric analysis; conditions: Mycolicibacterium smegmatis MC2 155
# [21] = Protein binding in rat plasma at 100 ng/ml by HPLC analysis; type: ADME, cell-free; conditions: read-out: PPB (converted)
# [22] = Protein binding in rat plasma at 2500 ng/ml by HPLC analysis; type: ADME, cell-free; conditions: read-out: PPB (converted)
# [23] = Protein binding in human plasma at 2500 ng/ml by HPLC analysis; type: ADME, cell-free; conditions: read-out: PPB (converted)
# Chain of DNA gyrase subunit B (Mycobacterium smegmatis (strain ATCC 700084 / mc(2)155), UniProt A0QNE0) (A0QNE0 whole entry): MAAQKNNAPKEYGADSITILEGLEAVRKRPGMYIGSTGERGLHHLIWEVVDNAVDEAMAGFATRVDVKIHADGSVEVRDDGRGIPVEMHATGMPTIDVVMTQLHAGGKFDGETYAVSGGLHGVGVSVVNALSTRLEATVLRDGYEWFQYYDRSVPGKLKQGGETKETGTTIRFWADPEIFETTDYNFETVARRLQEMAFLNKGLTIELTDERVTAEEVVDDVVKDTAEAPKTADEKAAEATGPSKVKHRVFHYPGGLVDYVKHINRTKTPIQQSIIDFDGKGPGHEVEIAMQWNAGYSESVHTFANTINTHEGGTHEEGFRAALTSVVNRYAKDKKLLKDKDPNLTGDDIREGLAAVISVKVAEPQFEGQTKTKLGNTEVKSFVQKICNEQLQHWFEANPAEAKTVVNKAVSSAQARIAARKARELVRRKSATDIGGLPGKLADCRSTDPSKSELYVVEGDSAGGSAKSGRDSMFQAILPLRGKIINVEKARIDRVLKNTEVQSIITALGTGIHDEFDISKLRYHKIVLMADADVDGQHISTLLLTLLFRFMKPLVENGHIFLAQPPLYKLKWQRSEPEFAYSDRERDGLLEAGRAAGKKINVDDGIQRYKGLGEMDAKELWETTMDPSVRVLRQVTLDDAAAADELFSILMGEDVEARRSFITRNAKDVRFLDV
# Chain of DNA gyrase subunit B (Mycobacterium smegmatis (strain ATCC 700084 / mc(2)155)) (A0QNE0 2-675 limits assumed): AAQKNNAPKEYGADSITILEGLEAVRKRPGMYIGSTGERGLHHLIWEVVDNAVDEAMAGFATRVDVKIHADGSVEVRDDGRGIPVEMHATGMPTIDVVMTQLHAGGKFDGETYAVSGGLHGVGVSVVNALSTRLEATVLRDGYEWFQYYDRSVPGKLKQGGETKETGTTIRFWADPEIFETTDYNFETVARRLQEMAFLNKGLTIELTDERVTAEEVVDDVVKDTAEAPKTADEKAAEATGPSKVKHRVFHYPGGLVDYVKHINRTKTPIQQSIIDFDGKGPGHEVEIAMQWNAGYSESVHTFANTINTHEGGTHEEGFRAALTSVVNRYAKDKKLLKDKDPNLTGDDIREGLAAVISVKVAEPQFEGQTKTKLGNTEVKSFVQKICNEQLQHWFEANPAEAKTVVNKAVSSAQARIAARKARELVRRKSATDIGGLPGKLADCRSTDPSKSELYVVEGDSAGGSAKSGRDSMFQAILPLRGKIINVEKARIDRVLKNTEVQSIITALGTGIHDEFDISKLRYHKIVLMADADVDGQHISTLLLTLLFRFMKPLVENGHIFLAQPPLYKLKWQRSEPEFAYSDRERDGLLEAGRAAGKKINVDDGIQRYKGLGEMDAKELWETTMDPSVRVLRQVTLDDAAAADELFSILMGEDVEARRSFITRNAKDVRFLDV
Structure (SMILES),IC50 [1],"inhibition at 48 h, 100 µM [2]",MIC [3],also measured
O=C(CN1CCN(c2ccnc3cc(Cl)ccc23)CC1)Nc1ccccn1,9.1 µM,25.4%,17.7 µM,–
O=C(CN1CCN(c2ccnc3cc(Cl)ccc23)CC1)NCc1ccccc1,23.8 µM,15.3%,63.3 µM,–
Cc1ccc(NC(=O)N2CCN(c3ccnc4cc(Cl)ccc34)CC2)cc1,16 µM,33.9%,32.8 µM,–
O=C(c1ccc[nH]1)N1CCN(c2ccnc3cc(Cl)ccc23)CC1,14.2 µM,34.2%,18.3 µM,–
O=C(CN1CCN(c2ccnc3cc(Cl)ccc23)CC1)Nc1ncc([N+](=O)[O-])s1,14.6 µM,11.3%,31.2 µM,–
O=C(CN1CCN(c2ccnc3cc(Cl)ccc23)CC1)Nc1nc2ccc([N+](=O)[O-])cc2s1,16.1 µM,23.6%,25.8 µM,–
CC(C)NC(=S)N1CCN(c2ccnc3cc(Cl)ccc23)CC1,40.4 µM,36.3%,71.6 µM,–
O=C(NCc1ccccc1)N1CCN(c2ccnc3cc(Cl)ccc23)CC1,6.1 µM,25.2%,17.7 µM,–
O=C(c1ccccn1)N1CCN(c2ccnc3cc(Cl)ccc23)CC1,11 µM,23.6%,35.4 µM,–
S=C(Nc1ccccc1)N1CCN(c2ccnc3cc(Cl)ccc23)CC1,4.12 µM,16.5%,16.3 µM,–
CO[C@H]1/C=C/O[C@@]2(C)Oc3c(C)c(O)c4c(O)c(c(/C=N/N5CCN(C)CC5)c(O)c4c3C2=O)NC(=O)/C(C)=C\C=C\[C@H](C)[C@H](O)[C@@H](C)[C@@H](O)[C@@H](C)[C@H](OC(C)=O)[C@@H]1C [RIFAMPIN],–,–,0.23 µM,–
COc1ccc(NC(=S)N2CCN(c3ccnc4cc(Cl)ccc34)CC2)cc1,11 µM,23.1%,30.3 µM,–
O=[N+]([O-])c1ccc(NC(=S)N2CCN(c3ccnc4cc(Cl)ccc34)CC2)cc1,6.8 µM,39.9%,14.3 µM,–
COc1ccc2[nH]c(C(=O)N3CCN(c4ccnc5cc(Cl)ccc45)CC3)cc2c1,24.3 µM,16.4%,29.7 µM,–
O=C(CN1CCN(c2ccnc3cc(Cl)ccc23)CC1)NCc1ccco1,16.2 µM,21.1%,32.5 µM,–
CC(=O)c1ccc(NC(=O)N2CCN(c3ccnc4cc(Cl)ccc34)CC2)cc1,18.8 µM,26.2%,30.6 µM,–
O=C(Nc1ccccc1)N1CCN(c2ccnc3cc(Cl)ccc23)CC1,7.6 µM,30.9%,17 µM,–
O=C(CN1CCN(c2ccnc3cc(Cl)ccc23)CC1)Nc1cc(C(F)(F)F)ccc1Cl,31.3 µM,24.7%,24.2 µM,–
COc1ccc(NC(=O)N2CCN(c3ccnc4cc(Cl)ccc34)CC2)cc1,21.1 µM,25.3%,31.5 µM,–
O=C(c1cc2cc(Cl)ccc2[nH]1)N1CCN(c2ccnc3cc(Cl)ccc23)CC1,10.3 µM,29.8%,14.7 µM,–
S=C(Nc1ccc(Cl)cc1)N1CCN(c2ccnc3cc(Cl)ccc23)CC1,10.7 µM,34.2%,30 µM,–
CCNC(=S)N1CCN(c2ccnc3cc(Cl)ccc23)CC1,40.6 µM,21.9%,74.6 µM,–
O=C(Nc1ccc(F)cc1)N1CCN(c2ccnc3cc(Cl)ccc23)CC1,3.1 µM,17.6%,15.3 µM,–
O=C(CN1CCN(c2ccnc3cc(Cl)ccc23)CC1)Nc1ccccc1,33.1 µM,26.2%,35.5 µM,–

Structure (SMILES),IC50 [1],"inhibition at 48 h, 100 µM [2]",MIC [3],also measured
O=[N+]([O-])c1cnc(N2CCN(c3ccnc4cc(Cl)ccc34)CC2)s1,9.6 µM,35.1%,33.2 µM,–
Cc1ccc(NC(=S)N2CCN(c3ccnc4cc(Cl)ccc34)CC2)cc1,13.8 µM,15.8%,63 µM,–
O=C(CN1CCN(c2ccnc3cc(C(F)(F)F)ccc23)CC1)NCc1ccccn1,> 75 µM,51.2%,116 µM,–
O=C(c1cc2cc(F)ccc2[nH]1)N1CCN(c2ccnc3cc(Cl)ccc23)CC1,13.6 µM,23.3%,15.3 µM,–
CC(=O)c1ccc(NC(=S)N2CCN(c3ccnc4cc(Cl)ccc34)CC2)cc1,27 µM,27.2%,58.8 µM,–
O=C(CN1CCN(c2ccnc3cc(Cl)ccc23)CC1)NCCc1ccccn1,30.4 µM,26.3%,61 µM,–
Fc1ccc(NC(=S)N2CCN(c3ccnc4cc(Cl)ccc34)CC2)cc1,2.5 µM,23.9%,7.8 µM,Vd [4]: 0.99 L/kg; PPB [5]: Dose-dependent effect; Tmax [6]: 2.2 h; AUC(0-inf) [7]: 19300 ng·h/mL; AUC(0-t) [8]: 18800 ng·h/mL; Time [9]: > 6 h; fraction unbound at 5000 ng/ml [10]: 0.057; clearance [11]: 13.3 mL/min/kg; AUC(0-t) [12]: 1240 ng·h/mL; half-life [13]: 2.04 h; AUC(0-inf) [14]: 1350 ng·h/mL; fraction unbound at 5000 ng/ml [15]: 0.046; PPB [16]: Dose-dependent effect; Cmax [17]: 2910 ng/mL; fraction unbound at 100 ng/ml [18]: 0.078; bioavailability [19]: 71.2%; ΔTm [20]: 4.1 °C; fraction unbound at 100 ng/ml [21]: 0.065; fraction unbound at 2500 ng/ml [22]: 0.052; fraction unbound at 2500 ng/ml [23]: 0.064
O=C(Nc1ccc(Cl)cc1)N1CCN(c2ccnc3cc(Cl)ccc23)CC1,9.9 µM,26.2%,31.5 µM,–
O=C(Nc1ccc([N+](=O)[O-])cc1)N1CCN(c2ccnc3cc(Cl)ccc23)CC1,9.2 µM,41.8 to 42%,30.4 µM,–
Clc1ccc2c(N3CCN(Cc4ccc[nH]4)CC3)ccnc2c1,16.9 µM,12.6%,76.5 µM,–
CC(=O)c1ccc(NC(=O)CN2CCN(c3ccnc4cc(Cl)ccc34)CC2)cc1,7.6 µM,29.5%,14.5 µM,–
O=C(c1cc2ccccc2[nH]1)N1CCN(c2ccnc3cc(Cl)ccc23)CC1,8.53 µM,34.6%,16 µM,–
Clc1ccc2c(N3CCN(Cc4c[nH]c5ccccc45)CC3)ccnc2c1,8.3 µM,22.2%,16.2 µM,–
NNC(=O)c1ccncc1 [ISONIAZID],–,–,0.66 µM,–
COc1ccc2c(N3CCN(CC(=O)NCc4ccccn4)CC3)ccnc2c1,51.6 µM,33.5%,63.9 µM,–
O=C(CN1CCN(c2ccnc3ccccc23)CC1)NCc1ccccn1,> 75 µM,23.5%,138 µM,–
O=[N+]([O-])c1ccc(N2CCN(c3ccnc4cc(Cl)ccc34)CC2)c2nonc12,10.3 µM,37.2%,7.26 µM,–
CCNC(=O)N1CCN(c2ccnc3cc(Cl)ccc23)CC1,45.3 µM,27%,157 µM,–
CC(C)NC(=O)N1CCN(c2ccnc3cc(Cl)ccc23)CC1,43.9 µM,34.4%,155 µM,–
O=C(CN1CCN(c2ccnc3cc(Cl)ccc23)CC1)NCc1cccs1,14.8 µM,33.4%,31.2 µM,–
S=C(NCc1ccccc1)N1CCN(c2ccnc3cc(Cl)ccc23)CC1,5.5 µM,19.8%,15.8 µM,–
O=C(CN1CCN(c2ccnc3cc(Cl)ccc23)CC1)NCc1ccccn1,12.2 µM,36.4%,31.6 µM,–
Clc1ccc2c(N3CCN(Cc4nc5ccccc5[nH]4)CC3)ccnc2c1,32.6 µM,34.8%,27.3 µM,–
CC1COc2c(N3CCN(C)CC3)c(F)cc3c(=O)c(C(=O)O)cn1c23 (stereo not drawn) [OFLOXACIN],–,–,2.16 µM,–
